In BigSolDB 2.1:

O=C(NC(Cc1cc(=O)[nH]c2ccccc12)C(=O)O)c1ccc(Cl)cc1 (stereo not given)
solubility (mole fraction)
Details | 278.15 K | 283.15 K | 288.15 K | 293.15 K | 298.15 K | 303.15 K | 308.15 K | 313.15 K | 318.15 K
in ethanol | 6.26e-05 | 6.92e-05 | 7.65e-05 | 8.61e-05 | 9.66e-05 | 0.000107 | 0.000118 | 0.000131 | 0.000143
in isopropanol | 2.41e-05 | 3.02e-05 | 3.87e-05 | 4.8e-05 | 5.92e-05 | 7.31e-05 | 8.91e-05 | 0.000107 | 0.000129
in n-propanol | 4.25e-05 | 5.08e-05 | 6e-05 | 7.03e-05 | 8.1e-05 | 9.38e-05 | 0.000107 | 0.000123 | 0.00014
in propylene glycol | 0.000182 | 0.000192 | 0.000207 | 0.000225 | 0.000247 | 0.000269 | 0.000293 | 0.000319 | 0.00035
in water | 3.46e-07 | 4.26e-07 | 5.29e-07 | 6.84e-07 | 8.68e-07 | 1.08e-06 | 1.3e-06 | 1.56e-06 | 1.87e-06
